In ChEMBL document CHEMBL5046249, “Synthesis, biological evaluation and cellular localization study of fluorescent derivatives of Jiyuan Oridonin A” (Eur J Med Chem, 2022):
pIC50: −log10 of the molar value.

How the values were obtained:
Format in all cases: functional, cell-based
PC-3 = assay: Antiproliferative activity against human PC-3 cells assessed as inhibition of cell growth measured after 72 hrs by SRB assay; settings: PC-3, 72 h
HGC-27 = assay: Antiproliferative activity against human HGC-27 cells assessed as inhibition of cell growth measured after 72 hrs by SRB assay; settings: HGC-27, 72 h
SW1990 = assay: Antiproliferative activity against human SW1990 cells assessed as inhibition of cell growth measured after 72 hrs by SRB assay; settings: SW1990, 72 h
MGC-803 = assay: Antiproliferative activity against human MGC-803 cells assessed as inhibition of cell growth measured after 72 hrs by SRB assay; settings: MGC-803, 72 h
TE-1 = assay: Antiproliferative activity against human TE-1 cells assessed as inhibition of cell growth measured after 72 hrs by SRB assay; settings: TE-1, 72 h

Compound	pIC50 (PC-3)	pIC50 (HGC-27)	pIC50 (SW1990)	pIC50 (MGC-803)	pIC50 (TE-1)
[N-]=[N+]=NCCOCCOCCOCCN1C(=O)c2cccc3c(N4CCCCC4)ccc(c23)C1=O	< 4.49	< 4.49	< 4.49	< 4.49	< 4.49
C=C1C(=O)[C@]23[C@H](O)[C@H]1C[C@H](O)[C@H]2[C@]12CCCC(C)(C)[C@H]1C[C@H]3O[C@H]2OCCc1cn(CCCCCN2C(=O)c3cccc4c(N5CCCCC5)ccc(c34)C2=O)nn1	6.30	5.61	5.61	5.82	5.52
C=C1C(=O)[C@]23[C@H](O)[C@H]1C[C@H](O)[C@H]2[C@]12CCCC(C)(C)[C@H]1C[C@H]3O[C@H]2OCCCCCCc1cn(CCOCCN2C(=O)c3cccc4c(N5CCCCC5)ccc(c34)C2=O)nn1	5.83	5.93	5.75	5.71	5.82
C=C1C(=O)[C@]23[C@H](O)[C@H]1C[C@H](O)[C@H]2[C@]12CCCC(C)(C)[C@H]1C[C@H]3O[C@H]2OCCCCCCc1cn(CCN2C(=O)c3cccc4c(N5CCCCC5)ccc(c34)C2=O)nn1	5.80	5.43	5.54	5.49	5.33
C=C1C(=O)[C@]23[C@H](O)[C@H]1C[C@H](O)[C@H]2[C@]12CCCC(C)(C)[C@H]1C[C@H]3O[C@H]2OCCCc1cn(CCCN2C(=O)c3cccc4c(N5CCCCC5)ccc(c34)C2=O)nn1	5.91	5.39	5.95	5.88	5.45
C=C1C(=O)[C@]23[C@H](O)[C@H]1C[C@H](O)[C@H]2[C@]12CCCC(C)(C)[C@H]1C[C@H]3O[C@H]2OCCCc1cn(CCCCN2C(=O)c3cccc4c(N5CCCCC5)ccc(c34)C2=O)nn1	5.91	5.65	6.06	5.90	5.68
C=C1C(=O)[C@]23[C@H](O)[C@H]1C[C@H](O)[C@H]2[C@]12CCCC(C)(C)[C@H]1C[C@H]3O[C@H]2OCCc1cn(CCOCCOCCN2C(=O)c3cccc4c(N5CCCCC5)ccc(c34)C2=O)nn1	6.01	5.45	5.68	5.48	5.74
C=C1C(=O)[C@]23[C@H](O)[C@H]1C[C@H](O)[C@H]2[C@]12CCCC(C)(C)[C@H]1C[C@H]3O[C@H]2OCCCCCc1cn(CCOCCOCCN2C(=O)c3cccc4c(N5CCCCC5)ccc(c34)C2=O)nn1	5.92	5.74	5.67	5.58	5.73
C=C1C(=O)[C@]23[C@H](O)[C@H]1C[C@H](O)[C@H]2[C@]12CCCC(C)(C)[C@H]1C[C@H]3O[C@H]2OCCCCCc1cn(CCCCN2C(=O)c3cccc4c(N5CCCCC5)ccc(c34)C2=O)nn1	5.87	5.52	5.33	5.57	5.29
C=C1C(=O)[C@]23[C@H](O)[C@H]1C[C@H](O)[C@H]2[C@]12CCCC(C)(C)[C@H]1C[C@H]3O[C@H]2OCCCCCc1cn(CCCCCN2C(=O)c3cccc4c(N5CCCCC5)ccc(c34)C2=O)nn1	6.11	5.78	5.55	5.61	5.33
C=C1C(=O)[C@]23[C@H](O)[C@H]1C[C@H](O)[C@H]2[C@]12CCCC(C)(C)[C@H]1C[C@H]3O[C@H]2OCCCCc1cn(CCN2C(=O)c3cccc4c(N5CCCCC5)ccc(c34)C2=O)nn1	5.84	5.21	5.86	5.92	5.65
C=C1C(=O)[C@]23[C@H](O)[C@H]1C[C@H](O)[C@H]2[C@]12CCCC(C)(C)[C@H]1C[C@H]3O[C@H]2OCCCCCc1cn(CCOCCN2C(=O)c3cccc4c(N5CCCCC5)ccc(c34)C2=O)nn1	6.06	5.79	5.47	5.56	5.63
C=C1C(=O)[C@]23[C@H](O)[C@H]1C[C@H](O)[C@H]2[C@]12CCCC(C)(C)[C@H]1C[C@H]3O[C@H]2OCCc1cn(CCOCCOCCOCCN2C(=O)c3cccc4c(N5CCCCC5)ccc(c34)C2=O)nn1	6.03	5.28	5.81	5.58	5.73
[N-]=[N+]=NCCN1C(=O)c2cccc3c(N4CCCCC4)ccc(c23)C1=O	< 4.49	< 4.49	< 4.49	< 4.49	< 4.49
C=C1C(=O)[C@]23[C@H](O)[C@H]1C[C@H](O)[C@H]2[C@]12CCCC(C)(C)[C@H]1C[C@H]3O[C@H]2OCCCCc1cn(CCCCN2C(=O)c3cccc4c(N5CCCCC5)ccc(c34)C2=O)nn1	6.04	5.74	6.07	5.77	5.41
C=C1C(=O)[C@]23[C@H](O)[C@H]1C[C@H](O)[C@H]2[C@]12CCCC(C)(C)[C@H]1C[C@H]3O[C@H]2OCCCCCCc1cn(CCCCN2C(=O)c3cccc4c(N5CCCCC5)ccc(c34)C2=O)nn1	5.21	5.64	5.34	5.34	5.05
C=C1C(=O)[C@]23[C@H](O)[C@H]1C[C@H](O)[C@H]2[C@]12CCCC(C)(C)[C@H]1C[C@H]3O[C@H]2OCCCCCCc1cn(CCCCCCN2C(=O)c3cccc4c(N5CCCCC5)ccc(c34)C2=O)nn1	5.52	5.23	5.31	5.44	5.39
C=C1C(=O)[C@]23[C@H](O)[C@H]1C[C@H](O)[C@H]2[C@]12CCCC(C)(C)[C@H]1C[C@H]3O[C@H]2OCCCCCCc1cn(CCCN2C(=O)c3cccc4c(N5CCCCC5)ccc(c34)C2=O)nn1	5.62	5.61	5.50	5.22	5.44
C=C1C(=O)[C@]23[C@H](O)[C@H]1C[C@H](O)[C@H]2[C@]12CCCC(C)(C)[C@H]1C[C@H]3O[C@H]2OCCCCc1cn(CCCCCN2C(=O)c3cccc4c(N5CCCCC5)ccc(c34)C2=O)nn1	5.90	5.71	5.57	5.51	5.20
C=C1C(=O)[C@]23[C@H](O)[C@H]1C[C@H](O)[C@H]2[C@]12CCCC(C)(C)[C@H]1C[C@H]3O[C@H]2OCCc1cn(CCCCN2C(=O)c3cccc4c(N5CCCCC5)ccc(c34)C2=O)nn1	6.13	5.79	5.79	5.82	5.31
C=C1C(=O)[C@]23[C@H](O)[C@H]1C[C@H](O)[C@H]2[C@]12CCCC(C)(C)[C@H]1C[C@H]3O[C@H]2OCCCc1cn(CCOCCOCCOCCN2C(=O)c3cccc4c(N5CCCCC5)ccc(c34)C2=O)nn1	6.09	5.51	5.79	5.66	5.84
